# Like-named read-outs stand apart in the source and are kept apart here.
# Legend:
# T84 cells = experiment: Inhibition of T84 colon carcinoma cell proliferation (WST-1, Example 1); assay type: cell-based; settings: Homo sapiens, 24 hours incubation
# Protocol: The effect of N,N,-diethyl-8,8-dipropyl-2-azaspiro[4,5]decane-2-propanamine dimaleate (Compound 1) on proliferation of human colon carcinoma cells T84 and CaCo-2 was evaluated in the following manner. Cell proliferation was measured by WST-1 dye conversion to Formazan assay using the proliferation kit from BioVision, CA. The procedure used was essentially as described in the manufacture's instructions. Briefly, cells were grown for 7 days until they formed semi-confluent monolayers. On day 7, cells were trypsinized and resuspended in 96-well plates at a concentration of approximately 40,000 cells/well and allowed to grow for 24 hours at 37° C.
# Subsequently, fresh media containing increasing concentrations of Compound 1, as indicated in the FIG. 1, were added and assay plates were further incubated for an additional period of 24 hours. A solution of 5 μl of WST-1 dye per well was added and plates were read after 4 hours at 440 and 600 nm using an ELISA plate reader. The absorbance at 440 minus that at 600 nm is directly proportion to the number of proliferating cells. All samples were measured in triplicate and results were expressed as an average of three determinations.
# [1] = tested on: chorioallantoic membrane (CAM); experiment: Anti-angiogenesis CAM assay; assay type: in vivo, White Leghorn eggs; settings: 48 hour exposure, ten eggs
# Protocol: The dosing was effected by pipetting 40 μl of the indicated solution onto a 13 mm round Thermanox® coverslip and allowing it to air dry. After the material appeared dry, the coverslip was placed onto the chorioallantoic membrane (CAM) of each egg insuring contact of the dried test article with the CAM. After dosing, the eggs were returned to the incubator for approximately 48 hours. Following the 48 hour exposure period, the eggs were removed from the incubator, observed for viability, and the exposed area under the coverslip was examined for loss of vasculature.
# CAKI-1 = experiment: NCI in vitro SRB assay, Renal Cancer; assay type: cell-based; settings: for CC50 / GI50: Homo sapiens
# Protocol: (§1) An in vitro assay which tested the ability of N,N,-diethyl-8,8-dipropyl-2-azaspiro[4,5]decane-2-propanamine dimaleate (Compound 1) to inhibit the growth of known cancer cell lines was performed by the National Cancer Institute in accordance with standard procedures. See: Lin, Z. X., Hoult, J. R., and Raman, A. Sulphorhodamine B assay for measuring proliferation of a pigmented melanocyte cell line and its application to the evaluation of crude drugs used in the treatment of vitiligo. J Ethnopharmacol. 66: 141-150, 1999. Briefly, selected tumor cell lines were cultured in media containing five different concentrations of Compound 1. After 48 hours of continuous exposure, a sulforhodamine B (SRB) assay was used to estimate cell viability or growth via optical measurements.
# (§2) From the measurements, the following values were determined: 1) the concentration of Compound 1 at which a tumor cell growth inhibition of 50% (relative to control) occurs (GI50), 2) the concentration of Compound 1 at which no growth occurs (total growth inhibition, TGI), and 3) the concentration of Compound 1 at which the […] (LC 50). […] FIG. 6 illustrates, graphically, tumor cell growth as a function of Compound 1 concentration of the scanned tumor cell lines.
# TK-10 = experiment: NCI in vitro SRB assay, Renal Cancer; assay type: cell-based; settings: for CC50 / GI50: Homo sapiens
# Protocol: as §1, §2
# 786-0 = experiment: NCI in vitro SRB assay, Renal Cancer; assay type: cell-based; settings: for CC50 / GI50: Homo sapiens
# Protocol: as §1, §2
# ACHN = experiment: NCI in vitro SRB assay, Renal Cancer; assay type: cell-based; settings: for GI50: Homo sapiens
# Protocol: as §1, §2
# [2] = CAKI-1, Log10 conc -4.0 Moles/L
# [3] = CAKI-1, Log10 conc -5.0 Moles/L
# [4] = CAKI-1, Log10 conc -6.0 Moles/L
# [5] = CAKI-1, Log10 conc -7.0 Moles/L
# [6] = CAKI-1, Log10 conc -8.0 Moles/L
structure (smiles),measurement,setting,value
"CCCC1(CCC)CCC2(CCN(CCCN(CC)CC)C2)CC1.O=C(O)/C=C\C(=O)O.O=C(O)/C=C\C(=O)O [Compound 1, N,N,-diethyl-8,8-dipropyl-2-azaspiro[4,5]decane-2-propanamine dimaleate]",IC50,T84 cells,625 to 1250 nM
same,Dead Eggs,[1]; Dose per egg 25 μg (0.625 mg/ml),0
same,Dead Eggs,[1]; Dose per egg 50 μg (1.25 mg/ml),0
same,Dead Eggs,[1]; Dose per egg 100 μg,4
same,Dead Eggs,[1]; Dose per egg 200 μg (5 mg/ml),3
same,Dead Eggs,[1]; Dose per egg 400 μg (10 mg/ml),7
same,Log10 TGI,CAKI-1; CAKI-1,−5.49
same,TGI,CAKI-1; CAKI-1,3270 nM
same,Mean Optical Densities,CAKI-1; [2],0.136
same,Percent Growth,CAKI-1; [2],−83%
same,Mean Optical Densities,CAKI-1; [3],0.150
same,Percent Growth,CAKI-1; [3],−81%
same,Mean Optical Densities,CAKI-1; [4],1.691
same,Percent Growth,CAKI-1; [4],86%
same,Mean Optical Densities,CAKI-1; [5],1.607
same,Percent Growth,CAKI-1; [5],78%
same,Mean Optical Densities,CAKI-1; [6],1.646
same,Percent Growth,CAKI-1; [6],82%
same,CC50,"CAKI-1; CAKI-1, read-out: LC50",6510 nM
same,CC50,"CAKI-1; CAKI-1, read-out: Log10 LC50 (converted)",6460 nM
same,GI50,"CAKI-1; CAKI-1, read-out: GI50",1650 nM
same,GI50,"CAKI-1; CAKI-1, read-out: Log10 GI50 (converted)",1660 nM
same,CC50,"TK-10; TK-10, read-out: LC50",5520 nM
same,CC50,"TK-10; TK-10, read-out: Log10 LC50 (converted)",5500 nM
same,GI50,"TK-10; TK-10, read-out: GI50",1270 nM
same,GI50,"TK-10; TK-10, read-out: Log10 GI50 (converted)",1260 nM
same,Log10 TGI,TK-10; TK-10,−5.58
same,TGI,TK-10; TK-10,2650 nM
same,Mean Optical Densities,"TK-10; TK-10, Log10 conc -4.0 Moles/L",0.101
same,Percent Growth,"TK-10; TK-10, Log10 conc -4.0 Moles/L",−89%
same,Mean Optical Densities,"TK-10; TK-10, Log10 conc -5.0 Moles/L",0.087
same,Percent Growth,"TK-10; TK-10, Log10 conc -5.0 Moles/L",−90%
same,Mean Optical Densities,"TK-10; TK-10, Log10 conc -6.0 Moles/L",1.283
same,Percent Growth,"TK-10; TK-10, Log10 conc -6.0 Moles/L",66%
same,Mean Optical Densities,"TK-10; TK-10, Log10 conc -7.0 Moles/L",1.389
same,Percent Growth,"TK-10; TK-10, Log10 conc -7.0 Moles/L",85%
same,Mean Optical Densities,"TK-10; TK-10, Log10 conc -8.0 Moles/L",1.449
same,Percent Growth,"TK-10; TK-10, Log10 conc -8.0 Moles/L",96%
same,Log10 TGI,786-0; 786-0,−5.48
same,TGI,786-0; 786-0,3330 nM
same,Mean Optical Densities,"786-0; 786-0, Log10 conc -4.0 Moles/L",0.132
same,Percent Growth,"786-0; 786-0, Log10 conc -4.0 Moles/L",−64%
same,Mean Optical Densities,"786-0; 786-0, Log10 conc -5.0 Moles/L",0.121
same,Percent Growth,"786-0; 786-0, Log10 conc -5.0 Moles/L",−67%
same,Mean Optical Densities,"786-0; 786-0, Log10 conc -6.0 Moles/L",0.934
same,Percent Growth,"786-0; 786-0, Log10 conc -6.0 Moles/L",73%
same,Mean Optical Densities,"786-0; 786-0, Log10 conc -7.0 Moles/L",1.091
same,Percent Growth,"786-0; 786-0, Log10 conc -7.0 Moles/L",94%
same,Mean Optical Densities,"786-0; 786-0, Log10 conc -8.0 Moles/L",1.111
same,Percent Growth,"786-0; 786-0, Log10 conc -8.0 Moles/L",96%
same,CC50,"786-0; 786-0, read-out: LC50",7570 nM
same,CC50,"786-0; 786-0, read-out: Log10 LC50 (converted)",7590 nM
same,GI50,"786-0; 786-0, read-out: GI50",1470 nM
same,GI50,"786-0; 786-0, read-out: Log10 GI50 (converted)",1480 nM
same,Log10 TGI,ACHN,−5.55
same,TGI,ACHN,2810 nM
same,GI50,ACHN; read-out: GI50,1490 nM
same,GI50,ACHN; read-out: Log10 GI50 (converted),1480 nM
same,Mean Optical Densities,ACHN; Log10 conc -4.0 Moles/L,−0.041
same,Percent Growth,ACHN; Log10 conc -4.0 Moles/L,−100%
same,Mean Optical Densities,ACHN; Log10 conc -5.0 Moles/L,−0.031
same,Percent Growth,ACHN; Log10 conc -5.0 Moles/L,−100%
same,Mean Optical Densities,ACHN; Log10 conc -6.0 Moles/L,0.705
same,Percent Growth,ACHN; Log10 conc -6.0 Moles/L,81%
same,Mean Optical Densities,ACHN; Log10 conc -7.0 Moles/L,0.711
same,Percent Growth,ACHN; Log10 conc -7.0 Moles/L,83%
same,Mean Optical Densities,ACHN; Log10 conc -8.0 Moles/L,0.721
same,Percent Growth,ACHN; Log10 conc -8.0 Moles/L,85%
